Laboratory results: PubChem BioAssay (NCI)
In brackets after ≈: the same amount, converted by molar mass.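 The compound was tested at five concentrations on cells cultured in 96-well plates, with a 48-hour exposure period. At the GI50, growth is halved. TGI marks complete inhibition of growth.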

How the values were obtained:
Test in all cases: NCI tumour cell line growth inhibition, 48 h
[1] = test system: 786-0 renal
[2] = test system: UACC-257 melanoma
[3] = test system: UACC-62 melanoma
[4] = test system: MDA-N
[5] = test system: NCI-H460 lung
[6] = test system: U251 CNS
[7] = test system: IGROV1 ovarian
[8] = test system: MDA-MB-435
[9] = test system: DU-145 prostate
[10] = test system: HT29 colon
[11] = test system: EKVX NSCLC
[12] = test system: SF-268 CNS
[13] = test system: HCT-116 colon
[14] = test system: CCRF-CEM leukemia
[15] = test system: MDA-MB-231 breast
[16] = test system: NCI/ADR-RES ovarian
[17] = test system: HS 578T breast
[18] = test system: OVCAR-4 ovarian
[19] = test system: NCI-H522 lung
[20] = test system: BT-549 breast
[21] = test system: HCT-15 colon
[22] = test system: M14 melanoma
[23] = test system: OVCAR-8 ovarian
[24] = test system: MALME-3M melanoma
[25] = test system: UO-31 renal
[26] = test system: OVCAR-3 ovarian
[27] = test system: T-47D breast
[28] = test system: SR leukemia
[29] = test system: SK-MEL-2 melanoma
[30] = test system: SK-OV-3 ovarian
[31] = test system: SF-295 CNS
[32] = test system: SN12C renal
[33] = test system: SK-MEL-28 melanoma
[34] = test system: SNB-19 CNS
[35] = test system: RXF 393 renal
[36] = test system: KM12 colon
[37] = test system: K-562 leukemia
[38] = test system: NCI-H226 lung
[39] = test system: SNB-75 CNS
[40] = test system: A549 NSCLC
[41] = test system: SF-539 CNS
[42] = test system: PC-3 prostate
[43] = test system: HOP-92 NSCLC
[44] = test system: NCI-H23 lung
[45] = test system: HL-60(TB) leukemia
[46] = test system: RPMI-8226 leukemia
[47] = test system: HCC-2998 colon
[48] = test system: CAKI-1 renal
[49] = test system: MCF7 breast
[50] = test system: A498 renal
[51] = test system: SK-MEL-5 melanoma
[52] = test system: LOX IMVI melanoma
[53] = test system: SW-620 colon
[54] = test system: COLO 205 colon
[55] = test system: ACHN renal
[56] = test system: OVCAR-5 ovarian
[57] = test system: MOLT-4 leukemia

COc1cccc(N=N/C(=N\NC(=O)c2cc(Br)ccc2O)c2ccc(N(CCC#N)CCC#N)cc2OC)c1
GI50 [1]: 79.2 µg/mL (≈ 131 µM)
TGI [1]: > 150 µg/mL
GI50 [2]: 87.8 µg/mL (≈ 145 µM)
TGI [2]: > 150 µg/mL
GI50 [3]: 60.5 µg/mL (≈ 100 µM)
TGI [3]: > 150 µg/mL
GI50 [4]: 59.3 µg/mL (≈ 98 µM)
TGI [4]: > 150 µg/mL
GI50 [5]: 24.9 µg/mL (≈ 41.3 µM)
TGI [5]: 82.7 µg/mL (≈ 137 µM)
GI50 [6]: 34.4 µg/mL (≈ 57 µM)
TGI [6]: > 150 µg/mL
GI50 [7]: 53.7 µg/mL (≈ 88.9 µM)
TGI [7]: > 150 µg/mL
GI50 [8]: 67.8 µg/mL (≈ 112 µM)
TGI [8]: > 150 µg/mL
GI50 [9]: 87.2 µg/mL (≈ 144 µM)
TGI [9]: > 150 µg/mL
GI50 [10]: 30 µg/mL (≈ 49.7 µM)
TGI [10]: > 150 µg/mL
GI50 [11]: 99.9 µg/mL (≈ 165 µM)
TGI [11]: > 150 µg/mL
GI50 [12]: 21.9 µg/mL (≈ 36.3 µM)
TGI [12]: 122 µg/mL (≈ 201 µM)
GI50 [13]: 46.4 µg/mL (≈ 76.8 µM)
TGI [13]: > 150 µg/mL
GI50 [14]: 53.7 µg/mL (≈ 88.8 µM)
TGI [14]: > 150 µg/mL
GI50 [15]: 71.9 µg/mL (≈ 119 µM)
TGI [15]: > 150 µg/mL
GI50 [16]: 120 µg/mL (≈ 198 µM)
TGI [16]: > 150 µg/mL
GI50 [17]: 48.9 µg/mL (≈ 80.9 µM)
TGI [17]: > 150 µg/mL
GI50 [18]: 17.5 µg/mL (≈ 29 µM)
TGI [18]: 60.9 µg/mL (≈ 101 µM)
GI50 [19]: 60.5 µg/mL (≈ 100 µM)
TGI [19]: > 150 µg/mL
GI50 [20]: 74.1 µg/mL (≈ 123 µM)
TGI [20]: > 150 µg/mL
GI50 [21]: 52 µg/mL (≈ 86.1 µM)
TGI [21]: > 150 µg/mL
GI50 [22]: 57.3 µg/mL (≈ 94.9 µM)
TGI [22]: > 150 µg/mL
GI50 [23]: 41.6 µg/mL (≈ 68.8 µM)
TGI [23]: > 150 µg/mL
GI50 [24]: 57.7 µg/mL (≈ 95.4 µM)
TGI [24]: 142 µg/mL (≈ 235 µM)
GI50 [25]: 68 µg/mL (≈ 112 µM)
TGI [25]: > 150 µg/mL
GI50 [26]: 59 µg/mL (≈ 97.6 µM)
TGI [26]: > 150 µg/mL
GI50 [27]: 64 µg/mL (≈ 106 µM)
TGI [27]: > 150 µg/mL
GI50 [28]: 71.4 µg/mL (≈ 118 µM)
TGI [28]: > 150 µg/mL
GI50 [29]: 47.9 µg/mL (≈ 79.2 µM)
TGI [29]: > 150 µg/mL
GI50 [30]: 72.6 µg/mL (≈ 120 µM)
TGI [30]: > 150 µg/mL
GI50 [31]: 52.6 µg/mL (≈ 87 µM)
TGI [31]: > 150 µg/mL
GI50 [32]: 99.4 µg/mL (≈ 164 µM)
TGI [32]: > 150 µg/mL
GI50 [33]: 62.7 µg/mL (≈ 104 µM)
TGI [33]: > 150 µg/mL
GI50 [34]: 68.9 µg/mL (≈ 114 µM)
TGI [34]: > 150 µg/mL
GI50 [35]: 70.4 µg/mL (≈ 116 µM)
TGI [35]: > 150 µg/mL
GI50 [36]: 26.9 µg/mL (≈ 44.5 µM)
TGI [36]: 83.4 µg/mL (≈ 138 µM)
GI50 [37]: 25.4 µg/mL (≈ 42 µM)
TGI [37]: > 150 µg/mL
GI50 [38]: 22 µg/mL (≈ 36.4 µM)
TGI [38]: 79.7 µg/mL (≈ 132 µM)
GI50 [39]: 19.6 µg/mL (≈ 32.4 µM)
TGI [39]: 69.5 µg/mL (≈ 115 µM)
GI50 [40]: 49.3 µg/mL (≈ 81.6 µM)
TGI [40]: > 150 µg/mL
GI50 [41]: 42.7 µg/mL (≈ 70.6 µM)
TGI [41]: > 150 µg/mL
GI50 [42]: 49.5 µg/mL (≈ 82 µM)
TGI [42]: > 150 µg/mL
GI50 [43]: 116 µg/mL (≈ 192 µM)
TGI [43]: > 150 µg/mL
GI50 [44]: 68.5 µg/mL (≈ 113 µM)
TGI [44]: > 150 µg/mL
GI50 [45]: 15 µg/mL (≈ 24.8 µM)
TGI [45]: 15 µg/mL (≈ 24.8 µM)
GI50 [46]: 41.4 µg/mL (≈ 68.4 µM)
TGI [46]: > 150 µg/mL
GI50 [47]: 21.3 µg/mL (≈ 35.2 µM)
TGI [47]: 73.2 µg/mL (≈ 121 µM)
GI50 [48]: 88.6 µg/mL (≈ 147 µM)
TGI [48]: > 150 µg/mL
GI50 [49]: 43.7 µg/mL (≈ 72.3 µM)
TGI [49]: > 150 µg/mL
GI50 [50]: 150 µg/mL (≈ 248 µM)
TGI [50]: > 150 µg/mL
GI50 [51]: 35.1 µg/mL (≈ 58.1 µM)
TGI [51]: 97.1 µg/mL (≈ 161 µM)
GI50 [52]: 15 µg/mL (≈ 24.8 µM)
TGI [52]: 15 µg/mL (≈ 24.8 µM)
GI50 [53]: 63.1 µg/mL (≈ 104 µM)
TGI [53]: > 150 µg/mL
GI50 [54]: 33.1 µg/mL (≈ 54.8 µM)
TGI [54]: 106 µg/mL (≈ 175 µM)
GI50 [55]: 56.8 µg/mL (≈ 93.9 µM)
TGI [55]: > 150 µg/mL
GI50 [56]: 79.2 µg/mL (≈ 131 µM)
TGI [56]: > 150 µg/mL
GI50 [57]: 54.7 µg/mL (≈ 90.5 µM)
TGI [57]: > 150 µg/mL
